Where two headings read alike, the source gives them in different places.
Assays:
[1] = In vitro open chamber Franz diffusion cell penetration test; assay type: in vitro ADME; details: Strat-M membrane, 37° C.
Protocol: The Test sample was Barsoleil OMC-60 with a purity of 61.95%. The control sample was Octyl Methoxycinnamate with a purity of 100%. The samples were applied to a Strat-M membrane for testing using 5 skin preparations. A 6-cell semiautomatic Franz cell setup was used for all diffusion experiments. (Franz cell Diffusion is a standard in vitro method used for penetration). Circulating water baths were set to 37° C.±0.5° C. Strat-M synthetic membrane was used in place of cadaver skin. The Strat-M® membrane was placed between the donor and receptor compartments of the Franz cells. The available open area between donor and receptor compartments measured 0.635 cm2. The compartments were clamped together, ensuring that the shiny side of the membrane was facing the donor compartment. 1 mL of the test and control samples were used and placed in the donor chamber. The receptor compartment was filled with 0.9% saline:methanol (50:50) buffer. When the receptor solution reached 37° C., the sample was added to the donor compartment. An aliquot of each sample was removed from the receptor compartment at times T=0, 2, 4, 6 and 8 hours.
The dose of the receptor phase was analyzed by HPLC, and the amount of release per unit area (μg/cm2) was plotted against the square of time and the slope was the transdermal release rate. (See FIG. 3, control sample 20, test sample 30).

[2] = human skin, cited from earlier work

| Cumulative C ([1]; penetration time 0 hrs) | Cumulative C ([1]; penetration time 2 hrs) | Cumulative C ([1]; penetration time 4 hrs) | Cumulative C ([1]; penetration time 6 hrs) | Cumulative C ([1]; penetration time 8 hrs) | Structure (SMILES) | in vitro skin penetration rate / skin accumulation ([2]; oil in water emulsion) | in vitro skin penetration rate / skin accumulation ([2]; water in oil emulsion) |
| --- | --- | --- | --- | --- | --- | --- | --- |
| 0 μg/cm^2 | 16.7 μg/cm^2 | 55.2 μg/cm^2 | 96.5 μg/cm^2 | 144.9 μg/cm^2 | CCCCC(CC)COC(=O)C=Cc1ccc(OC)cc1 (stereo not shown) [OMC, Octyl Methoxycinnamate] |  |  |
|  |  |  |  |  | CCCCC(CC)COC(=O)/C=C/c1ccc(OC)cc1 (stereo not shown) [OMC-free] | 127.8 μg/cm^2 | 172.1±12.9 μg/cm^2 |
